Test results taken from BindingDB's records for doi:10.1093/toxsci/kfq269 (Amgen, 2010).

Molecular target: Bile salt export pump (Homo sapiens, UniProt O95342)
Test: ChEBML_1661982
Protocol: Inhibition of human BSEP expressed in fall armyworm sf9 cell plasma membrane vesicles assessed as reduction in vesicle-associated [3H]-taurocholate transport preincubated for 10 mins prior to ATP addition measured after 15 mins in presence of [3H]-taurocholate by topcount based membrane vesicle transport assay

O=C1OC2(c3ccc(O)cc3Oc3cc(O)ccc32)c2ccccc21
IC50: > 135 µM
